Experimental data as given in US8809324B2, “Substituted phenyl-oxathiazine derivatives, method for producing them, drugs containing said compounds and the use thereof” (Sanofi, priority 2011, dated 2014).

What follows are compounds tested against human 11β-HSD1 microsome fraction (Homo sapiens, UniProt P28845) (assay: Enzymatic 11Beta-HSD1 test (SPA-based detection)). Settings: human 11β-HSD1 microsomes, [1,2-3H]-cortisone, NADPH, 37° C. 1 hour.
Sequence of human 11β-HSD1 microsome fraction (P28845 whole entry): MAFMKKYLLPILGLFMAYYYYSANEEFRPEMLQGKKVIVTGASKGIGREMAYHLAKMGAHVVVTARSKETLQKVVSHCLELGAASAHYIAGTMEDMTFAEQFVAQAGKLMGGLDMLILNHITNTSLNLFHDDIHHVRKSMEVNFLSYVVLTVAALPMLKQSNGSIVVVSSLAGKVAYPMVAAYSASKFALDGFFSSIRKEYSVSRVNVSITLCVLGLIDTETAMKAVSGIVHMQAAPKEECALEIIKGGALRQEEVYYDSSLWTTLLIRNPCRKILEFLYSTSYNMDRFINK
Type: biochemical
Description: Enzymatic 11Beta-HSD1 Test:
To measure the activity of the compounds, an SPA-based detection method (Solly et al. 2005) was employed. First of all, 20 μl of the human 11β-HSD1 microsome fraction (0.2 μg of protein), prepared in 50 mM HEPES, 0.1% BSA (w/v), were applied to a plate with 384 wells. The test compounds (0.09 μl) were applied to the assay plate in 100% DMSO. The reaction was started by addition of 20 μl of [1,2-^3H]-cortisone (0.1 μCi/[…]) in assay buffer comprising 25 mM HEPES, 100 mM KCl, 5 mM NaCl, 2 mM MgCl2 and 0.25 mM NADPH. The plate was agitated at 37° C. for 1 hour. At the same time, a stop solution comprising 20 mg/ml SPA-PVT beads, 1.6 mg/ml monoclonal cortisol antibody and 0.01 mM SSR110887 (inhibitor from the Biovitrium patent) in 50 mM HEPES, 1 M NaCl and 1 M KCl was stirred at room temperature. To stop the reaction, 25 μl of the stop solution were added to each well. The plate was agitated gently at room temperature for 1 further hour and then centrifuged at 500 gav for 1 minute, in order that the SPA beads could settle out. The plate was then read in a Wallac-1450-Microbeta unit with a standard SPA program (counting time 1 min/well). The comparative compound was glycyrrhetinic acid.
Protein and radioactive substrate were dispensed with a Biomek FX unit (Beckman Coulter) for handling liquids. The test compounds were added with a Cybi-Well equipped with a 90 nl pin tool (CyBio).
Lit.: Solly S, Mundt S S, Zokian H J, Juy-Fang Ding G, Hermanowski-Vosatka A, Strulovici B and Zheng W. High-throughput screening of 11β-Hydroxysteroid dehydrogenase type 1 in scintillation proximity format. Assay Drug Dev Technol 2005; 3:377-384.
With `CC1(C)OC(NC23CC4CC(CC2C4)C3)=NS(=O)(=O)[C@H]1c1ccc(-c2cccc(C(=O)O)c2)cc1` [Example 1, 4′-[(S)-2-(Hexahydro-2,5-methanopentalen-3a-ylamino)-6,6-dimethyl-4,4-dioxo-5,6-dihydro-4H-4lambda6-[1,4,3]oxathiazin-5-yl]-biphenyl-3-carboxylic acid] the IC50 was 0.014 µM. For `CC1(C)OC(NC23CC4CC(CC2C4)C3)=NS(=O)(=O)[C@H]1c1ccc(C2CCN(CCC(F)(F)F)CC2)cc1` [Example 2, ((S)-6,6-Dimethyl-4,4-dioxo-5-{4-[1-(3,3,3-trifluoropropyl)-piperidin-4-yl]phenyl}-5,6-dihydro-4H-4lambda6-[1,4,3]oxathiazin-2-yl)-(hexahydro-2,5-methanopentalen-3a-yl)amine], the IC50 was 0.024 µM. For `CC1(C)OC(NC23CC4CC2CC(C(N)=O)(C4)C3)=NS(=O)(=O)[C@@H]1c1ccc(Br)cc1` (stereo partly drawn) [Example 3, 3a-[(R)-5-(4-Bromophenyl)-6,6-dimethyl-4,4-dioxo-5,6-dihydro-4H-4lambda6-[1,4,3]oxathiazin-2-ylamino]hexahydro-2,5-methanopentalene-2-carboxamide], the IC50 was 0.022 µM. In the case of `CC1(C)OC(NC23CC4CC2CC(C(N)=O)(C4)C3)=NS(=O)(=O)[C@@H]1c1ccc(-c2ccccc2)cc1` (stereo partly drawn) [Example 4, 3a-((R)-5-Biphenyl-4-yl-6,6-dimethyl-4,4-dioxo-5,6-dihydro-4H-4lambda6-[1,4,3]oxathiazin-2-ylamino)hexahydro-2,5-methane-pentalene-2-carboxamide], the IC50 is reported as 0.034 µM.
